Experimental data reported in US20230203041A1, “ANTAGONISTS OF THE ADENOSINE A2A RECEPTOR” (AdoRx Therapeutics Limited, priority 2020, published 2023).

How the values were obtained:
human PBMCs = assay: CD3/CD28 stimulated IL-2 release NECA reversal assay in human PBMCs; assay type: cell-based; conditions: PBMC, CD3/CD28 antibody stimulated, 1 uM NECA, 24 hours, IL-2 in culture supernatant;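 also: dose-response as % inhibition where 100% equals no-NECA control wells with CD3/CD28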
How it was run: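 PBMCs from citrated donor blood, 50,000 cells/well on plate-bound CD3 antibody (1 ug/ml), with 1 ug/ml CD28 antibody, 1 uM NECA and antagonist at 0.003-10 μM final. After 24 h at 37° C, supernatant IL-2 was measured by MSD immunoassay.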

[1] = target: T1, human Adenosine A2a receptor (Homo sapiens, UniProt P29274); assay: Adenosine receptor TR-FRET binding assay (CA200645 displacement), A2a; conditions: 100 nM CA200645, CHO cell membranes, 2 hours at room temperature
T1 construct: expressed in transfected cells; host or cells: CHO cell membranes
T1 sequence (P29274 whole entry): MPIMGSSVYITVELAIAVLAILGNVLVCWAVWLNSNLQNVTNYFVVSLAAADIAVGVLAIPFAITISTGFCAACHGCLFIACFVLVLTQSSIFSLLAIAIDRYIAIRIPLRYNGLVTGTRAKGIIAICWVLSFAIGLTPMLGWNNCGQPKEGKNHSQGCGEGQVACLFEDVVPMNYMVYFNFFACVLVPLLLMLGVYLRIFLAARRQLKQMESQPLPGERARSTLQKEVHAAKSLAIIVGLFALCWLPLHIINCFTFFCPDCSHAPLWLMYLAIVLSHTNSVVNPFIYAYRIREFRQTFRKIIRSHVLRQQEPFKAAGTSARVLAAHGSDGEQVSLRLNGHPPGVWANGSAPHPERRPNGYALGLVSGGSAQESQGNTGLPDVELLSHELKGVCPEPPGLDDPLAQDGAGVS

[2] = tested on: CD8+ T cells in human whole blood; assay: Measurement of pCREB in CD8+ T cells in human whole blood; assay type: cell-based; conditions: T-cell, 1 h; heparinised human whole blood, rolipram, 3 μM NECA, 60 min, phospho-CREB in CD8+ T cells by FACS
How it was run: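 Heparinised human whole blood preincubated 20 min at 37 °C with serially diluted A2a antagonists plus rolipram, then stimulated 60 min with 3 μM NECA (final). After fixation and RBC lysis, permeabilized leukocytes stained for phospho-CREB and CD8; pCREB in CD8+ T cells read by flow cytometry.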

[3] = target: T2, human Adenosine A2b receptor (Homo sapiens, UniProt P29275); assay: Adenosine receptor TR-FRET binding assay (CA200645 displacement), A2b; conditions: 30 nM CA200645, CHO cell membranes, 2 hours at room temperature
T2 construct: expressed in transfected cells; host or cells: CHO cell membranes
T2 sequence (P29275 1-332): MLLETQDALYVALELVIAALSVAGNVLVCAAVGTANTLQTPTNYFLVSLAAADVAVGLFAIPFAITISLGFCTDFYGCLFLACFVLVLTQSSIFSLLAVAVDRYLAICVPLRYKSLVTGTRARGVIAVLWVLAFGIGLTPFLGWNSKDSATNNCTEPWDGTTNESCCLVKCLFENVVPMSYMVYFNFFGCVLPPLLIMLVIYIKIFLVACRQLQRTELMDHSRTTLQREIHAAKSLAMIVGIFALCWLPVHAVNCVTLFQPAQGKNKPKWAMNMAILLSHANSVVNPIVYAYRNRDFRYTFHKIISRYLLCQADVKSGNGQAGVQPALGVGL

[4] = target: T3, human Adenosine A3 receptor (Homo sapiens, UniProt P0DMS8); assay: Adenosine receptor TR-FRET binding assay (CA200645 displacement), A3
T3 sequence (P0DMS8 1-318): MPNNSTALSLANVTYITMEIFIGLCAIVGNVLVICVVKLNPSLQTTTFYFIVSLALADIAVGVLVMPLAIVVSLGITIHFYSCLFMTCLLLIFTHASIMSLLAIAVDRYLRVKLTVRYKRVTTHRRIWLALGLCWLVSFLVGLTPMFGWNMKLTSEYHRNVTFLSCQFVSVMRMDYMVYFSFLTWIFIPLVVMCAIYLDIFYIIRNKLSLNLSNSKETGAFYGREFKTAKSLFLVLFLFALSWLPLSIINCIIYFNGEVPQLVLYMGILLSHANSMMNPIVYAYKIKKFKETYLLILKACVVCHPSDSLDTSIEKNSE

[5] = target: T4, human Adenosine A1 receptor (Homo sapiens, UniProt P30542); assay: Adenosine receptor TR-FRET binding assay (CA200645 displacement), A1
T4 sequence (P30542 1-326): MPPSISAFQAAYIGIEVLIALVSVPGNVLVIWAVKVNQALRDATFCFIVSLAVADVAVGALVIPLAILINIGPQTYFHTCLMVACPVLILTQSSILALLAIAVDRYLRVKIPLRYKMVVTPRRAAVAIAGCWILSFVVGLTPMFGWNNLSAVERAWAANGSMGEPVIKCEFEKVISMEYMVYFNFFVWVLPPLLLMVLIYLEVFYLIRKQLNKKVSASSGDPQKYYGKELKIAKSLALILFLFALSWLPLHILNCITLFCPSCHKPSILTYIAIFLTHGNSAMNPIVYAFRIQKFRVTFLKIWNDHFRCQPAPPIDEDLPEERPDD
Method: All FRET binding experiments were conducted at room temperature in white 384-well plates, in assay binding buffer containing 1×LabMed (Cisbio, France), 100 μg/mL saponin, 1% DMSO and 0.02% pluronic acid. Binding of the fluorescently labelled Adenosine receptor antagonist XAC (CA200645, FRET acceptor) to terbium-labelled A1, A2a, A2b and A3 adenosine receptors (FRET donors) was detected by time-resolved FRET due to the close proximity of the donor and acceptor in a binding event. To investigate the ability of unlabelled test compounds to bind to Adenosine A1, A2a, A2b and A3 receptors, dose response curves were constructed that determined the ability of a range of concentrations to inhibit the binding of 30 nM CA200645 to the A2b receptor and 100 nM CA200645 to the A1, A2a, and A3 receptor.
Serial dilution (1:3 dilutions) of test compounds in neat DMSO and transfer of a 400 nL sample of test compound into the assay plate was carried out using the Mosquito (TTP Labtech, UK). The compound samples were incubated for 2 hours at room temperature with a fixed concentration of CA200645 defined for each receptor (see above) and CHO cell membranes containing the human Adenosine A1 (0.5 μg/well), A2a (0.3 μg/well), A2b (1 μg/well) or A3 (1 μg/well) receptor in 40 μL of assay buffer. Total and non-specific binding of CA200645 was determined in the absence and presence of 10 μM XAC, respectively. Following 2 hours incubation, the level of CA200645 binding was detected on a Pherastar FSX (BMG Labtech, Germany) using standard TR-FRET settings. The terbium donor was excited with three laser flashes at a wavelength of 337 nm, and donor and acceptor emission was detected at 620 nm and 665 nm wavelengths, respectively. FRET ratios were obtained by multiplying the acceptor/donor ratio value by 10,000. Specific binding was determined by subtracting the non-specific binding FRET ratio from the total binding FRET ratio. Compound IC50 curves were analysed using GraphPad Prism 7.0 (GraphPad, USA) and Ki affinity values were determined from the obtained IC50 values using the method of Cheng and Prusoff.

| Compound | IC50 (human PBMCs) | Ki [1] | IC50 [2] | Ki [3] | Ki [4] | Ki [5] |
| --- | --- | --- | --- | --- | --- | --- |
| Cc1cc(-c2c(-c3cccc(C#N)c3)nn3ccc(NC(=N)N)nc23)cc(Cl)n1 [Example 16.1, 1-[3-(2-Chloro-6-methyl-4-pyridyl)-2-(3-cyanophenyl)pyrazolo[1,5-a]pyrimidin-5-yl]guanidine] | 77 nM | 1.4 nM | 1050 nM | 8 nM | 2600 nM | 116 nM |
| Cc1cc(-c2c(-c3cccc(C#N)c3)nn3ccc(NCC(C)(C)O)nc23)cc(C(F)F)n1 [Example 23, 3-[3-[2-(Difluoromethyl)-6-methyl-4-pyridyl]-5-[(2-hydroxy-2-methyl-propyl)amino]pyrazolo[1,5-a]pyrimidin-2-yl]benzonitrile] | 20 nM | 0.6 nM | 390 nM | 53 nM | > 1000 nM | 42 nM |
| COc1cc(-c2c(-c3cccc(C#N)c3)nn3ccc(NCC(C)(C)O)nc23)cc(C)n1 [Example 23.1] | 83 nM | 1.3 nM | 1010 nM | 143 nM | > 1000 nM | 147 nM |
| Cc1cc(-c2c(-c3cccc(C#N)c3)nn3ccc(NCC(C)(C)O)nc23)cc(C)n1 [Example 23.2] | 25 nM | 1.9 nM | 260 nM | 168 nM | > 1000 nM | 280 nM |
| Cc1cc(-c2c(-c3cccc(C#N)c3)nn3ccc(OC4CCNCC4)nc23)cc(Cl)n1 [Example 24, 3-[3-(2-Chloro-6-methyl-4-pyridyl)-5-(4-piperidyloxy)pyrazolo[1,5-a]pyrimidin-2-yl]benzonitrile] | 51 nM | 0.6 nM | 3630 nM | 16 nM | > 1000 nM | 216 nM |
| Cc1cc(-c2c(-c3cccc(C#N)c3)nn3ccc(N)nc23)cc(C(F)F)n1 [Example 26.1, 3-[5-Amino-3-[2-(difluoromethyl)-6-methyl-4-pyridyl]pyrazolo[1,5-a]pyrimidin-2-yl]benzonitrile] | 32 nM | 1.5 nM | 460 nM | 2 nM | 2360 nM | 17 nM |
| COc1cc(-c2c(-c3cccc(C#N)c3)nn3ccc(N)nc23)cc(C)n1 [Example 26.2, 3-[5-Amino-3-(2-methoxy-6-methyl-4-pyridyl)pyrazolo[1,5-a]pyrimidin-2-yl]benzonitrile] | 69 nM | 6.2 nM | 2540 nM | 18 nM | 2520 nM | 123 nM |
| Cc1cc(-c2c(-c3cccc(C#N)c3)nn3ccc(N)nc23)cc(N)n1 [Example 27.1, 3-[5-Amino-3-(2-amino-6-methyl-4-pyridyl)pyrazolo[1,5-a]pyrimidin-2-yl]benzonitrile] | 36 nM | 9.2 nM | 740 nM | 43 nM | > 1000 nM | 62 nM |
| Cc1cc(-c2c(-c3cccc(C#N)c3)nn3ccc(NC(N)=O)nc23)cc(Cl)n1 [Example 30, [3-(2-Chloro-6-methyl-4-pyridyl)-2-(3-cyanophenyl)pyrazolo[1,5-a]pyrimidin-5-yl]urea] | 21 nM | 0.8 nM | 640 nM | 5 nM | > 1000 nM | 57 nM |
| Cc1cc(-c2c(-c3cccc(C#N)c3)nn3ccc(NC(N)=O)nc23)cc(C)n1 [Example 30.3, [2-(3-Cyanophenyl)-3-(2,6-dimethyl-4-pyridyl)pyrazolo[1,5-a]pyrimidin-5-yl]urea] | 50 nM | 1.8 nM | 120 nM | 14 nM | > 1000 nM | 47 nM |
| Cc1cc(-c2c(-c3cccc(C#N)c3)nn3ccc(N/C(=N\C#N)NC(C)C)nc23)cc(Cl)n1 [Example 32.1, 1-[3-(2-Chloro-6-methyl-4-pyridyl)-2-(3-cyanophenyl)pyrazolo[1,5-a]pyrimidin-5-yl]-2-cyano-3-isopropyl-guanidine] | 9 nM | 0.2 nM | 1180 nM | 1 nM | 115 nM | 10 nM |
